Data as given in the NIST ThermoML archive (doi:10.1021/je1004966).
± gives the expanded uncertainty stated by the source.

Conditions: Crystal; DTA

Normal melting temperature: 86.0 ± 1 °C
Structure (SMILES): Cl.Cn1ccnc1 [1-methylimidazolium chloride]
